From patent publication US20110269825A1, “Modified Thromboxane A2 Receptor Promoter Sequence” (priority 2008, published 2011)
Marks after values point to notes of the source that are not given here.

How the values were obtained:
HEL 92.1.7 cells = experiment: Dual luciferase genetic reporter assay of promoter-directed luciferase expression in HEL cells; assay type: cell-based, human; conditions: for Increase in luciferase activity relative to Prm1 (−8500): 5′ deletion or site-directed mutation of Prm1; for Decrease in luciferase expression relative to Prm1B (−7962): 5′ deletion or site-directed mutation of Prm1B; for Decrease in luciferase expression relative to Prm1HΔ (−6320): site-directed mutation within Prm1HΔ; for Luciferase expression compared with another construct, in words: comparator as named in the words or parent fragment
Description: HEL and EA.hy 926 cells were co-transfected with the various pGL3Basic-recombinant plasmids (2 mg), encoding firefly luciferase, along with pRL-TK (200 ng), encoding renilla luciferase, using DMRIE-C® transfection reagent. HEK293, WI-38, and 1° hAoSMCs were co-transfected with the pGL3Basic-recombinant plasmids (2 mg), along with pRL-TK (200 ng), using Effectene transfection reagent. In all cases, cells co-transfected with pRL-TK (200 ng) in the presence of either the pGL3Control vector (firefly luciferase gene under the control of the SV40 promoter; 2 mg) or the promoter-less pGL3Basic empty vector (2 mg), which served as positive and negative controls, respectively. Firefly and renilla luciferase expression was assayed some 48 h post-transfection using the Dual-Luciferase Reporter Assay System™, as described (Coyle et al., 2005). Relative firefly to renilla luciferase activity (arbitrary units) was calculated as a ratio and was expressed in relative luciferase units (RLU). To investigate the effect of over-expression of exon 5 (+ or −) or KTS (+ or −) isoforms of WT1 on Prm1-directed gene expression, HEL cells were co-transfected with either pGL3b:Prm1 or pGL3b:Prm1D (1.5 μg) plus 200 ng of pRL-TK along with either pcDNA3:WT1 (+/+), pcDNA3:WT1 (+/−), pcDNA3:WT1 (−/+), pcDNA3:WT1 (−/−) (0.5 μg), or as a control, pcDNA3 (0.5 μg). Cells were harvested 48 h post-transfection and assayed for luciferase activity, as above, or subjected to western blot or RT-PCR analysis. The plasmids pcDNA3:WT1 (+/+), pcDNA3:WT1 (+/−), pcDNA3:WT1 (−/+) and pcDNA3:WT1 (−/−) were generously donated by Dr. Charles T. Roberts JR, Oregon National Primate Research Center, Oregon, USA and have been previously described (Tajinda et al., 1999). For PMA studies, approximately 32 h post-transfection, the medium was supplemented with PMA (100 nM), with PMA (100 nM) and PD98059 (10 μM) or, as a control, with vehicle [0.1% (v/v) DMSO]. After 16 h, cells were assayed for firefly and renilla luciferase using the Dual-Luciferase Reporter Assay System™ as previously described (Coyle et al., 2005). The plasmid pCMV5-NAB1, containing the entire coding sequence for NAB1, was generously donated by Dr. Gerald Thiel, University of Saarland Medical Center, Homburg, Germany, and has been described previously (Thiel et al., 2000). To investigate the effect of over-expression of NAB1 on the PMA-mediated induction of Prm1-directed gene expression, HEL cells were transiently co-transfected with pGL3b:Prm1 (2 μg) plus pRL-TK (200 ng) along with either pCMV5 (control) or pCMV:NAB1 (1 μg). Cells were harvested 48 h post-transfection and assayed for luciferase activity, as above.

[1] = system: Prm1-directed luciferase expression; experiment: Effect of PMA, PD98059 or Vitamin D3 on Prm1-directed luciferase expression in HEL cells; assay type: cell-based, human
Description: HEL and EA.hy 926 cells were co-transfected with the various pGL3Basic-recombinant plasmids (2 mg), encoding firefly luciferase, along with pRL-TK (200 ng), encoding renilla luciferase, using DMRIE-C® transfection reagent. HEK293, WI-38, and 1° hAoSMCs were co-transfected with the pGL3Basic-recombinant plasmids (2 mg), along with pRL-TK (200 ng), using Effectene transfection reagent. In all cases, cells co-transfected with pRL-TK (200 ng) in the presence of either the pGL3Control vector (firefly luciferase gene under the control of the SV40 promoter; 2 mg) or the promoter-less pGL3Basic empty vector (2 mg), which served as positive and negative controls, respectively. […] Relative firefly to renilla luciferase activity (arbitrary units) was calculated as a ratio and was expressed in relative luciferase units (RLU). To investigate the effect of over-expression of exon 5 (+ or −) or KTS (+ or −) isoforms of WT1 on Prm1-directed gene expression, HEL cells were co-transfected with either pGL3b:Prm1 or pGL3b:Prm1D (1.5 μg) plus 200 ng of pRL-TK along with either pcDNA3:WT1 (+/+), pcDNA3:WT1 (+/−), pcDNA3:WT1 (−/+), pcDNA3:WT1 (−/−) (0.5 μg), or as a control, pcDNA3 (0.5 μg). […] The plasmid pCMV5-NAB1, containing the entire coding sequence for NAB1, was generously donated by Dr. Gerald Thiel, University of Saarland Medical Center, Homburg, Germany, and has been described previously (Thiel et al., 2000). To investigate the effect of over-expression of NAB1 on the PMA-mediated induction of Prm1-directed gene expression, HEL cells were transiently co-transfected with pGL3b:Prm1 (2 μg) plus pRL-TK (200 ng) along with either pCMV5 (control) or pCMV:NAB1 (1 μg).

## Prm1^GC*^(−7831): Prm1 with GC element at −7831 mutated (SEQ ID NO:15) (DNA TCACTGTCCTCTCATCT; expressed or natural sequence; listed as Homo sapiens)
HEL 92.1.7 cells; HEL
  Increase in luciferase activity relative to Prm1 (−8500): 2.1 fold

## Prm1D^GC*^(−6717): Prm1D with GC element at −6717 mutated (SEQ ID NO:23) (DNA TCTGTCCTATCACCCCA; expressed or natural sequence; listed as Homo sapiens)
HEL 92.1.7 cells; HEL, 5′ deletion or site-directed mutation of Prm1D
  Increase in luciferase expression relative to Prm1D (−6848): 4.8 fold

## Prm1B^Ets(−7870)*: Prm1B with Ets element at −7870 mutated (SEQ ID NO:19) (DNA GACAGGTGAAGTGGGGA; expressed or natural sequence; listed as Homo sapiens)
HEL 92.1.7 cells; HEL
  Decrease in luciferase expression relative to Prm1B (−7962): 2.2 fold

## Prm1HΔ^NF-E2/AP1(−6080)*: Prm1HΔ with NF-E2/AP1 element at −6080 mutated (SEQ ID NO:33) (DNA CCAGACACACTCAGTTTCCCT; expressed or natural sequence; listed as Homo sapiens)
HEL 92.1.7 cells; HEL
  Decrease in luciferase expression relative to Prm1HΔ (−6320): reduced luciferase activity

## Prm1^GC*^(−8281): Prm1 with GC element at −8281 mutated (SEQ ID NO:11) (DNA GCCCGGTTCCCGCCGGA; expressed or natural sequence; listed as Homo sapiens)
HEL 92.1.7 cells; HEL
  Increase in luciferase activity relative to Prm1 (−8500): 1.9 fold

## Prm1^GC*^(−8345): Prm1 with GC element at −8345 mutated (SEQ ID NO:9) (DNA TGCCCCTGACCCCAC; expressed or natural sequence; listed as Homo sapiens)
HEL 92.1.7 cells; HEL
  Increase in luciferase activity relative to Prm1 (−8500): 2.0 fold

## Prm1I^GC*^(−6206): Prm1I with GC element at −6206 mutated (SEQ ID NO:29) (DNA CAGCGGCCTACACCCGT; expressed or natural sequence; listed as Homo sapiens)
HEL 92.1.7 cells; HEL, 5′ deletion or mutation of Prm1I
  Increase in luciferase activity relative to Prm1I (−6258): 1.3 fold

## Prm1B^GATA(−7890)*: Prm1B with GATA element at −7890 mutated (SEQ ID NO:17) (DNA CTTGGTAGCTCAG; expressed or natural sequence; listed as Homo sapiens)
HEL 92.1.7 cells; HEL
  Decrease in luciferase expression relative to Prm1B (−7962): 1.8 fold

## Prm1HΔ^Sp1/Egr1(−6022)*: Prm1HΔ with Sp1/Egr1 element at −6022 mutated (SEQ ID NO:35) (DNA TCTGCCCTAACCCAGCCCT; expressed or natural sequence; listed as Homo sapiens)
HEL 92.1.7 cells; HEL
  Decrease in luciferase expression relative to Prm1HΔ (−6320): 1.8 fold

## Prm1HΔ^Sp1/Egr1(−6294)*: Prm1HΔ with Sp1/Egr1 element at −6294 mutated (SEQ ID NO:25) (DNA CGAGGAACATGGCCA; expressed or natural sequence; listed as Homo sapiens)
HEL 92.1.7 cells; HEL
  Decrease in luciferase expression relative to Prm1HΔ (−6320): 1.3 fold

## Prm1HΔ^Sp1/Egr1(−6007)*: Prm1HΔ with Sp1/Egr1 element at −6007 mutated (SEQ ID NO:37) (DNA CCCTCGCAATACCCTCGG; expressed or natural sequence; listed as Homo sapiens)
HEL 92.1.7 cells; HEL
  Decrease in luciferase expression relative to Prm1HΔ (−6320): 1.5 fold

## Prm1BΔGata/Ets^Ets(−7805)*: Prm1BΔGata/Ets with Ets element at −7805 mutated (SEQ ID NO:21) (DNA GCCCCACATCACCCTCC; expressed or natural sequence; listed as Homo sapiens)
HEL 92.1.7 cells; HEL
  Luciferase expression compared with another construct, in words: did not significantly affect the level of luciferase activity

## Prm1HΔ^Sp1/Egr1(−6278)*: Prm1HΔ with Sp1/Egr1 element at −6278 mutated (SEQ ID NO:27) (DNA CGCAGGGTGTATGGGGCTG; expressed or natural sequence; listed as Homo sapiens)
HEL 92.1.7 cells; HEL
  Decrease in luciferase expression relative to Prm1HΔ (−6320): reduced luciferase activity

## C=C1/C(=C\C=C2/CCC[C@]3(C)[C@@H]([C@H](C)CCCC(C)(C)O)CC[C@@H]23)C[C@@H](O)C[C@@H]1O [Vitamin D3, 1α, 25-dihydroxy-vitamin D3]
[1]; 80 nM Vitamin D3, 24 h or 30 h
  Effect on luciferase expression directed by Prm1K: no significant effect on luciferase expression directed by Prm1K
[1]; 80 nM Vitamin D3, 30 h
  Increase in Prm1-directed luciferase expression: 1.6 fold

B1: Prm1D^WT-1(a, b, x)*: Prm1D-derived promoter with mutations at −6717, −6206 and −6800 (SEQ ID NO:124) (nucleic acid, listed as Homo sapiens)
DNA: GCTCCAAAGCCACCTCCGAGCCTCCTCAAGAGACCCTCCCATGCGATGCCACCACCCCAGCCCTCCCGGCTCACCTGCTCTGGGACCACCTTTCTCAGTCTGGCTGTGTCGTCTGGTGCACCCCCCATCCCTCTGTCCTATCACCCCACCCCTGGAAGGGGCCTCAAATATGTCCTGTATGTATTAAGCAGGGCATACTACTACTGTGTGCCGCGTTCCAGCGCACCCAGTGAATTTGGAGCCCTGGAGTCTGGGCGACCCCCGGGAGCCGATCCGCCTGGACCTGCCCCGCCCCCTCCAGGCCTTGGGTGCTGCCCAGATGGTGAATAATGCGGGCCTGGCGGCGGGAGCGCCGGGAAGAGGCCTGGCAGGGCGCTGGGCGGCTGGAGGGGCTGAGGCTCCCGAGGAAGCGCCCCTGCCACCCCTACGCGGGCCATTGCATCCCTGCCACCGGTGGCCTGGGGGTCCCAAGGGCGCCGCCTTCCCCAGAAGGCTGTAGGGTGTCCCGGCGTGCGGGGGGCACCCACTGACTCCAAGTCAGCCAGGCCCGGGCCCGAGGGGCGTGGCCAGCGCAGGGTGGGCGGGGCTGATGAGAGACAGCGGGAGACAGAGACTGGACGGAGAGAGCGAGCCGCGGGCTGCCAGCGGCCTACACCCGTCCCAGCTCGGCTTAGCCCCCGCGGACCCCTCCAGGCCGCGACCCCAGGGCGTCCTGTGCCGCCACGCCCTCCATCTGTGTGGGTCCTCTGCTGGGCCCGCCCCTGGTCACAGCCAGACTGACTCAGTTTCCCTGGGAGGTCCCGCTCGAGCCCGTCCTTCCCCTCCCTCTGCCCGCCCCCAGCCCTCGCCCCACCCTCGGCGCCCGCACATCTGCCTGCTCAGCTCCAGACGGCGCCCGGACCCCCGGGCGCGGGATCCAGCCAGGTGGGAGCCCCGCAGATGAGGTCTCTGAAG
HEL 92.1.7 cells; HEL
  Statistical significance of luciferase expression vs Prm1D^WT-1(a, b)*: *** (p<0.001)
  Luciferase expression compared with another construct, in words: an even stronger promoter for driving luciferase expression relative to Prm1D^WT1(a)*^(b)*
HEL 92.1.7 cells; HEL cells, co-transfected with pRL-TK, 48 h post-transfection
  Mean firefly relative to renilla luciferase activity: 38.26 RLU
HEL 92.1.7 cells; HEL, ↑ = increase
  Statistical significance of luciferase expression vs Prm1D: *** (p<0.001)
